Source: US20190365927A1, “COMPOSITION FOR PHOTODYNAMIC THERAPY USING GENE EXPRESSING FLUORESCENT PROTEIN AND PHOTOSENSITIZER, AND PHOTODYNAMIC THERAPY METHOD USING SAME” (priority 2017, published 2019)

Experiments:
[1] = test system: GFP+ 4T1 cells, RFP+ 4T1 cells and control 4T1 cells; assay: In vitro PDT of GFP+ and RFP+ cells with photosensitizer and red, blue or yellow light, MTT analysis; assay type: cell-based, mouse; conditions: FIG. 14; for cytotoxicity in control, RFP+ and GFP+ cells: 1 μM photosensitizer
Description: The cytotoxicity of RFP+ or GFP+ cells was measured by MTT analysis in the presence of Ce6 (Chlorine (e6)), rose bengal or tin ethyl etiopurpurin as photosensitizer after red light, blue light or yellow light irradiation. The specific experimental procedure is as follows.
Specifically, Ce6 (santacruz, sc-263067), rose bengal (Sigma Aldrich, 330000-5G) or tin ethyl etiopurpurin as a photosensitizer was diluted with RPMI-1640 medium containing 10% FBS. Thus, 1 μM concentration of Ce6 (Chlorine (e6)), rose bengal or tin ethyl etiopurpurin was prepared. Further, GFP+ 4T1 cells selected in the 1-4 and RFP+ 4T1 cells selected in the 1-3 were pre-cultured at a density of 2×10^4 cells/well in 96-well, black, and clear bottom plates. The pre-cultured cells were then incubated with Ce6, rose bengal or tin ethyl etiopurpurin for 4 h. 4T1 cells without RFP or GFP introduced thereto were used as controls. After 4 hours, the cells were washed three times with PBS buffer. Then, red laser light (650 nm; radiation dose rate=2 J/cm^2) or blue laser light (488 nm; radiation dose rate=2 J/cm^2) or yellow laser light (570 nm, radiation dose rate=2 J/cm^2) was irradiated thereto for 5 seconds. After the irradiation, the fresh culture medium was added to the wells. Then, the cells were cultured again for 24 hours. MTT analysis was then performed.

[2] = test system: RFP+ and RFP− 4T1 cells; assay: In vitro PDT with tin ethyl etiopurpurin and yellow light over irradiation time, LDH and MTT analysis; assay type: cell-based, mouse; conditions: 1 μM, yellow laser light, in 2 seconds after light irradiation, FIG. 11, 12
Description: The yellow light was irradiated over time, and then photo inducing death of RFP+ and RFP− cells was measured by MTT analysis under the presence of tin ethyl etiopurpurin. The specific experimental procedure is as follows.
Specifically, tin ethyl etiopurpurin (Miravant Medical Technology Inc, USA) was diluted with RPMI-1640 medium containing 10% FBS to produce 1 μM concentration of tin ethyl etiopurpurin. Further, the RFP− or RFP+ 4T1 cells selected from the above 1-3 were pre-incubated in a 24-well plate at a density of 5×10^4 cells per well. The pre-cultured cells were then incubated with tin ethyl etiopurpurin for 4 h. After 4 hours, the cells were washed three times with PBS buffer. Then, the yellow laser light (570 nm; radiation dose rate=2 J/cm^2) was irradiated thereto for 0, 5 and 10 seconds. LDH analysis was then performed using the LDH Cytotoxicity Assay kit (Cayman Chemical Company, USA) according to the manufacturer's procedure. […] The absorbance was measured at 490 nm using a plate reader.
Further, the RFP− or RFP+ 4T1 cells selected from the 1-3 using the same method as described above were subjected to the yellow laser light (570 nm; radiation dose rate=2J/cm^2) for 0, 1, 2, 5, 7, or 10 secs. […] The absorbance of the reaction solution was measured at 570 nm. Cell viability was calculated by the following equation: […]

[3] = test system: GFP+ 4T1 cells and RFP+ 4T1 cells; assay: Experiment using artificial skin, MTT assay; assay type: cell-based, mouse; conditions: presence as well as absence of artificial skin (1 mm), 1 μM, yellow laser light, FIG. 17
Description: Actual skin condition was applied. photosensitizer was applied to GFP+ cell and RFP+ cell which in turn was irradiated with light. Then, cell death was measured by MTT assay. The specific experimental procedure is as follows.
Specifically, rose bengal and tin ethyl etiopurpurin at 1 μM concentration were produced in the same method as described in the 2-4. Then, the tin ethyl etiopurpurin was applied to RFP+ 4T1 cells selected from the 1-3. The rose bengal was applied to GFP+ 4T1 cells selected from 1-4. Then, the cells were cultured for 4 hours and washed three times with PBS buffer. Next, as shown in the schematic diagram of FIG. 16, an artificial skin tissue (AST, thickness 1 mm) (Geistlich Mucograft, Geistlich Pharma AG) was placed between the light source and the cell. Thus, the actual skin condition was established. Then, blue laser light (473 nm; radiation dose rate=2 J/cm^2) was applied to GFP+ cells for 5 seconds. Yellow laser light (580 nm; radiation dose rate=2 J/cm^2) were irradiated to RFP+ cells for 5 seconds. In 2 hours of the irradiation, the cells were washed twice with PBS buffer. MTT analysis was carried out in the same method as described in the Experimental Example 2-2. […]

[4] = test system: RFP+ and RFP− 4T1 cells; assay: In vitro PDT with varying tin ethyl etiopurpurin concentration, MTT analysis; assay type: cell-based, mouse; conditions: 0, 0.5, 1 and 2 μM, yellow laser light 5 seconds, FIG. 13
Description: After irradiation with yellow light, the photo inducing death of RFP+ and RFP− cells was measured by MTT analysis under the conditions of varying tin ethyl etiopurpurin concentrations. The specific experimental procedure is as follows.
Specifically, tin ethyl etiopurpurin was produced at 0, 0.5, 1 and 2 μM concentrations in the same method as described above. Then, the cells were cultured for 4 hours with RFP− or RFP+ 4T1 cells selected from the 1-3. MTT analysis was performed after irradiation of yellow laser light (570 nm; radiation dose rate=2 J/cm^2) thereto for 5 seconds.

[5] = test system: GFP+ A549, RFP+ A549 and YFP+ A549 cells; assay: In vitro PDT of GFP+, RFP+ and YFP+ cells with photosensitizer, MTT analysis; assay type: cell-based, human; conditions: 1 μM, yellow laser light (570 nm), FIG. 21, 22
Description: Photo inducing death of GFP+, RFP+, and YFP+ cells via the photosensitizer was measured by MTT analysis. The specific experimental procedure is as follows.
To investigate photo inducing death of GFP+ cells, RFP+ cells, and YFP+ cells via the photosensitizer, rose bengal, hematoporphyrin (Sigma-aldrich #5518) or 5-ALA (5-Aminolevulinic acid hydrochloric, Sigma-aldrich # A3785) was diluted with RPMI medium containing 10% FBS. 1 μM concentration of rose bengal, hematoporphyrin or 5-ALA was prepared. Further, GFP+ A549 cells, RFP+ A549 cells and YFP+ A549 cells selected from the 1-4 were pre-incubated at a density of 5×10^3 cells per well on 96-well, black, and clear bottom plates. A549 cells with pcDNA 3.1 vector injected thereto were cultured as control. Then, each of the photosensitizers as produced was applied or not applied to the preincubated cells in the preincubated cells which in turn were cultured for 4 hours. After 4 hours, the cells were washed three times with PBS buffer. Irradiation or non-irradiation of blue laser light (488 nm; radiation dose rate=2 J/cm^2) or yellow laser light (570 nm; radiation dose rate=2 J/cm^2) thereto was carried out for 5 seconds. After irradiation or non-irradiation, a fresh culture medium was added to the wells. The cells were cultured again for 24 hours. MTT analysis was then performed.

[6] = test system: eGFP+ and eGFP− cells; assay: Cytotoxicity with Ce6 and 650-nm red laser light, eGFP+ versus eGFP− cells; assay type: cell-based; conditions: FIG. 5

For `CCOC(=O)C1=Cc2c3nc(cc4nc(cc5[n-]c(cc6[n-]c2c(C)c6CC)c(C)c5CC)C(C)=C4CC)[C@@H](C)[C@]13CC.[Cl-].[Cl-].[Sn]` (racemic) [tin ethyl etiopurpurin], which “cytotoxicity in control, RFP+ and GFP+ cells” value ([1]; yellow laser light) is on record?
Its value is “cytotoxicity was seen only in RFP+ cells”.

What about the “degree of cytotoxicity in RFP+ cells versus GFP+ cells treated with rose bengal and blue laser light” value ([1]; 1 μM, yellow laser light) of the same molecule?
Its value is “the degree of cytotoxicity was higher”.

What about the “RFP+ cell death compared to RFP− cell, by irradiation duration” value [2] of the same molecule?
Its value is “RFP+ cell death increased considerably”.

What about the “cell death level of RFP+ cells versus GFP+ cells treated with rose bengal and blue laser light” value [3] of the same molecule?
Its value is “the cell death level was higher”.

And the “RFP+ cell death by treatment concentration” value [4]?
Its value is “increased remarkably”.

Which “cell death effect in YFP+ cell and RFP+ cell” value [5] does the source give for `Cl.NCC(=O)CCC(=O)O` [5-ALA, 5-Aminolevulinic acid hydrochloride] here?
The value was “significant cell death effect”.

And the “cell death effect of RFP+ cell” value [5]?
The value was “remarkable cell death effect”.

What does the source list for chlorine e6 [Ce6]?
cytotoxicity for eGFP+ versus eGFP− cells [6]: not different from each other; cytotoxicity in control, RFP+ and GFP+ cells ([1]; red laser light (650 nm)): control, RFP+, and GFP+ cells showed cytotoxicity
